Assay results from patent publication US10981932B2, “Macrocyclic indole derivatives” (Bayer Aktiengesellschaft, priority 2016, dated 2021).
Where a name gives a salt, the structure may show the parent alone. Read-outs that look alike come from different tables or passages of the source.

Assays:
SUDHL5 [1] = assay: Induction of caspase-3/7 activity (Caspase-Glo 3/7), SUDHL5; type: cell-based; conditions: caspase-3/7 induction, SUDHL5 cells, 3 h treatment, median
Outline: (§1)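 Apoptosis induction measured as caspase-3/7 activity (Caspase-Glo 3/7) in DLBCL lines after 3 h treatment at 37 °C; EC50 derived relative to the reference compound's maximal induction, with C0 fixed at 1.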

MV-4-11 = assay: Anti-proliferative effect (CellTiter-Glo, 72 h), MV-4-11; type: cell-based; conditions: MV-4-11 cells, median, read-out: IC50 antiproliferation assay MV-4-11 [M] (median)
Outline: (§2)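 Luminescence from CellTiter-Glo, read 10 min after reagent addition, reports viable cell content after 72 h of compound treatment at 37 °C. A reference plate read at day 0 gives the starting baseline.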

OPM2 = assay: Anti-proliferative effect (CellTiter-Glo, 72 h), OPM2; type: cell-based; conditions: OPM2 cells, median, read-out: IC50 antiproliferation assay OPM2 [M] (median)
Outline: as §2

SUDHL5 [2] = assay: Induction of cytotoxicity (CellTiter-Glo, 5 h), SUDHL5
SUDHL10 [3] = assay: Induction of cytotoxicity (CellTiter-Glo, 5 h), SUDHL10
SUDHL10 [4] = assay: Induction of caspase-3/7 activity (Caspase-Glo 3/7), SUDHL10; type: cell-based; conditions: caspase-3/7 induction, SUDHL10 cells, 3 h treatment, median
Outline: as §1

MCL-1 = MCL-1 (Homo sapiens, UniProt Q07820); assay: Protein-protein interaction assay MCL-1/Noxa BH3 peptide (MCL-1 assay), TR-FRET; type: binding; conditions: MBP-MCL-1 / Noxa BH3-derived peptide, median
Outline: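 Inhibition values were normalized between DMSO controls with all reagents and controls lacking MCL-1. The binding competition used 1 nM MBP-MCL-1 in pH 7 Tris buffer containing 50 mM KF and 100 mM NaCl, with a 10 min compound preincubation at 22 °C.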

A2780 = assay: Anti-proliferative effect (CellTiter-Glo, 72 h), A2780; type: cell-based; conditions: A2780 cells, median, read-out: IC50 antiproliferation assay A2780 [M] (median)
Outline: as §2

SUDHL5 [5] = assay: Anti-proliferative effect (CellTiter-Glo, 72 h), SUDHL5; type: cell-based; conditions: SUDHL5 cells, antiproliferation, 72 h incubation, median, read-out: Antiproli SUDHL5 [M] (median)
Outline: as §2

SUDHL10 [6] = assay: Anti-proliferative effect (CellTiter-Glo, 72 h), SUDHL10; type: cell-based; conditions: SUDHL10 cells, antiproliferation, 72 h incubation, median, read-out: Antiproli SUDHL10 [M] (median)
Outline: as §2

[7] = read-out: Cytotox SUDHL5 [M] (median), SUDHL5 cells, cytotoxicity induction, CellTiter-Glo, 5 h incubation, median
[8] = read-out: Cytotox SUDHL10 [M] (median), SUDHL10 cells, cytotoxicity induction, CellTiter-Glo, 5 h incubation, median
[9] = Homo sapiens, SU-DHL10, 5 h, read-out: Cytotox SUDHL10 [M] (median), SUDHL10 cells, cytotoxicity induction, CellTiter-Glo, 5 h incubation, median

MCL-1, sequence (Q07820 whole entry): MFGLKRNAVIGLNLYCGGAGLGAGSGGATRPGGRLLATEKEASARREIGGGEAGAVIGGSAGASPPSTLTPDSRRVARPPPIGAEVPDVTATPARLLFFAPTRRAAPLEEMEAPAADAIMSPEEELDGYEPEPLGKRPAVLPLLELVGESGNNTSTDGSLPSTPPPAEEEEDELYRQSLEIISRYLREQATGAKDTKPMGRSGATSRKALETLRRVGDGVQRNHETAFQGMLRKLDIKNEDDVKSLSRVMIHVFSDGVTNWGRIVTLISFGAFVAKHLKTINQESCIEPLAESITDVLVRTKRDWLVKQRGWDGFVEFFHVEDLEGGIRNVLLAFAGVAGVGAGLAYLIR

Row | EC50 (SUDHL5 [1]) [µM] | IC50 (MV-4-11; Homo sapiens, MV4-11, 72 h) [M] | EC50 (SUDHL10 [4]) [µM] | IC50 (MCL-1) [µM] | IC50 (A2780; Homo sapiens, A2780, 72 h) [M] | IC50 (SUDHL5 [5]; Homo sapiens, SU-DHL-5, 72 h) [M] | IC50 (SUDHL10 [6]; Homo sapiens, SU-DHL10, 72 h) [M] | EC50 (SUDHL5 [1]; Homo sapiens, SU-DHL-5, 3 h) [µM] | EC50 (SUDHL10 [4]; Homo sapiens, SU-DHL10, 3 h) [µM] | IC50 (MV-4-11) [M] | IC50 (A2780) [M] | IC50 (SUDHL5 [5]) [M] | IC50 (SUDHL10 [6]) [M] | Compound | IC50 (OPM2; Homo sapiens, OPM-2, 72 h) [M] | IC50 (SUDHL5 [2]; [7]) [M] | IC50 (SUDHL10 [3]; [8]) [M] | IC50 (SUDHL10 [3]; [9]) [M] | IC50 (OPM2) [M] | IC50 (SUDHL5 [2]; Homo sapiens, SU-DHL-5, 5 h, read-out: Cytotox SUDHL5 [M] (median), SUDHL5 cells, cytotoxicity induction, CellTiter-Glo, 5 h incubation, median)
1 | 31 | 7.75e-06 | > 33 | 0.281 | 2.26e-05 | 1.25e-05 | 7.55e-06 |  |  |  |  |  |  | Cn1nc(COc2ccc(S(C)(=O)=O)cc2)c2c1COCC=CCn1c(C(=O)O)c(CCCOc3cccc4ccccc34)c3cccc-2c31 (single isomer, unassigned) [Example 1-52, (E/Z)-1-methy-3-{[4-(methylsulfonyl)phenoxy]methyl}-7-[3-(naphthalen-1-yloxy)propyl]-1,10,13,15-tetrahydropyrazolo[4′,3′:9,10][1,6]oxazacycloundecino[8,7,6-hi]indole-8-carboxylic Acid] | 3.2e-05 | 3.15e-05 | 2.71e-05 |  |  | 
2 |  | 2.62e-06 |  | 0.0102 | 7.55e-06 | 2.48e-06 | 4.3e-06 | 6.34 | 7.32 |  |  |  |  | COc1ccccc1-c1ncc(OCc2nn(C)c3c2-c2cccc4c(CCCOc5cccc6ccccc56)c(C(=O)O)n(c24)CCCN(C)C3)cn1 (single isomer, unassigned) [Example 1-91, 11-({[2-(2-methoxyphenyl)pyrimidin-5-yl]oxy}methyl)-7,9-dimethyl-1-[3-(naphthalen-1-yloxy)propyl]-4,5,6,7,8,9-hexahydropyrazolo[3′,4′:7,8][1,5]diazecino[9,10,1-hi]indole-2-carboxylic acid-N-ethylethanamine Salt] | 8.37e-06 | 5.99e-06 |  | 9.23e-06 |  | 
3 | 3.88 |  | 4.47 | 0.0068 |  |  |  |  |  | 1.57e-06 | 6.23e-06 | 3.21e-06 | 3.83e-06 | COc1ccccc1-c1ncc(OCc2nn(C)c3c2-c2cccc4c(CCCOc5cccc6ccccc56)c(C(=O)O)n(c24)CCCN(C)C3)cn1 (single isomer, unassigned) [Example 1-92, 11-({[2-(2-methoxyphenyl)pyrimidin-5-yl]oxy}methyl)-7,9-dimethyl-1-[3-(naphthalen-1-yloxy)propyl]-4,5,6,7,8,9-hexahydropyrazolo[3′,4′:7,8][1,5]diazecino[9,10,1-hi]indole-2-carboxylic acid-N-ethylethanamine Salt] |  | 2.9e-06 | 5.77e-06 |  | 9.6e-06 | 
4 | 12.5 |  | 14.7 | 0.0242 |  |  |  |  |  | 8.59e-06 | > 3.3e-05 | 3.37e-06 | 1.17e-05 | Cn1nc(COc2ccc(N3CCN(S(C)(=O)=O)CC3)cc2)c2c1COCCCCn1c(C(=O)O)c(CCCOc3cccc4ccccc34)c3cccc-2c31 (single isomer, unassigned; enantiomer 1) [Example 1-9, 1-methyl-3-({4-[4-(methylsulfonyl)piperazin-1-yl]phenoxy}methyl)-7-[3-(naphthalen-1-yloxy)propyl]-1,10,11,12,13,15-hexahydropyrazolo[4′,3′:9,10][1,6]oxazacycloundecino[8,7,6-hi]indole-8-carboxylic Acid (Enantiomer 1)] |  | 9.46e-06 | 9.08e-06 |  | > 3.3e-05 | 
5 | 18.3 |  | 20.4 | 0.0688 |  |  |  |  |  | 6.78e-06 | > 3.3e-05 | 5.72e-06 | 8.96e-06 | Cn1nc(COc2ccc(N3CCN(S(=O)(=O)C4CC4)CC3)cc2)c2c1COCCCCn1c(C(=O)O)c(CCCOc3cccc4ccccc34)c3cccc-2c31 (single isomer, unassigned; enantiomer 1) [Example 1-12, 3-({4-[4-(cyclopropylsulfonyl)piperazin-1-yl]phenoxy}methyl)-1-methyl-7-[3-(naphthalen-1-yloxy)propyl]-1,10,11,12,13,15-hexahydropyrazolo[4′,3′:9,10][1,6]oxazacycloundecino[8,7,6-hi]indole-8-carboxylic Acid (Enantiomer 1)] |  | 1.73e-05 | 1.43e-05 |  | > 3.3e-05 | 
6 | 4.5 |  | 6.15 | 0.00671 | > 3.3e-05 | 1.31e-05 | > 3.3e-05 |  |  | 8.89e-06 |  |  |  | Cc1c2c(nn1C)CN(C)CCCn1c(C(=O)O)c(CCCOc3cccc4ccccc34)c3cccc-2c31 (single isomer, unassigned; enantiomer 1) [Example 1-34, 7,10,11-trimethyl-1-[3-(naphthalen-1-yloxy)propyl]-4,5,6,7,8,10-hexahydropyrazolo[3′,4′:7,8][1,5]diazecino[9,10,1-hi]indole-2-carboxylic Acid-N-ethylethanamine Salt (Enantiomer 1)] | 2.69e-05 | 3.36e-06 | 4.53e-06 |  |  | 
7 | 21.6 | 4.94e-06 | > 33 | 0.0368 | 3.95e-06 | 5.8e-06 | 1.93e-06 |  |  |  |  |  |  | CN(C)S(=O)(=O)N1CCN(c2ccc(OCc3nn(C)c4c3-c3cccc5c(CCCOc6cccc7ccccc67)c(C(=O)O)n(c35)CCCCCC4)cc2)CC1 (single isomer, unassigned; enantiomer 1) [Example 1-40, 3-({4-[4-(dimethylsulfamoyl)piperazin-1-yl]phenoxy}methyl)-1-methyl-7-[3-(naphthalen-1-yloxy)propyl]-10,11,12,13,14,15-hexahydro-1H-pyrazolo[4′,3′:4,5]azacycloundecino[3,2,1-hi]indole-8-carboxylic acid-N-ethylethanamine Salt (Enantiomer 1)] |  | 1.69e-05 | 2.3e-05 |  | 5.38e-06 | 
8 | 9 | 7.19e-06 | 13.5 | 0.0203 | 1.12e-05 | 8.76e-06 | 4.63e-06 |  |  |  |  |  |  | Cc1nn(C)c2c1-c1cccc3c(CCCOc4cccc5ccccc45)c(C(=O)O)n(c13)CCCN(c1ccc(N3CCOCC3)cc1)C2 (single isomer, unassigned; enantiomer 1) [Example 1-99, 9,11-Dimethyl-7-[4-(morpholin-4-yl)phenyl]-1-[3-(1-naphthyloxy)propyl]-4,5,6,7,8,9-hexahydropyrazolo[3′,4′:7,8][1,5]diazecino[9,10,1-hi]indole-2-carboxylic Acid (Enantiomer 1)] | 1.98e-05 | 1.3e-05 |  | 1.93e-05 |  | 
9 | 7.09 | 6.94e-06 |  | 0.0185 | 8.7e-06 | 4.55e-06 | 4.08e-06 |  | 8.86 |  |  |  |  | CCS(=O)(=O)N1CCN(c2ccc(N3CCCn4c(C(=O)O)c(CCCOc5cccc6ccccc56)c5cccc(c54)-c4c(C)nn(C)c4C3)cc2)CC1 (single isomer, unassigned; enantiomer 1) [Example 1-109, 7-{4-[4-(Ethylsulfonyl)piperazin-1-yl]phenyl}-9,11-dimethyl-1-(3-(1-naphthyloxy)propyl-4,5,6,7,8,9-hexahydropyrazolo[3′,4′:7,8][1,5]diazecino[9,10,1-hi]indole-2-carboxylic Acid (Enantiomer 1)] | 8.14e-06 |  |  | 1.48e-05 |  | 8.44e-06
